Test results as given in ChEMBL document CHEMBL5543137, “Design and Synthesis of Novel Ultralong-Acting Peptides as EDP-EBP Interaction Inhibitors for Pulmonary Fibrosis Treatment” (J Med Chem, 2024).
Calls of active or inactive are those of the source. The calls are words filed in the database; no cut-off is given here. Starred links: 1 amine or outer side, 2 acyl side, 3 side chain; linkers in the order of their positions; H or OH if unused. Non-standard residues stand in square brackets, D forms with d. Residues, ends and D or L forms follow the SMILES beside them. *: point of attachment. C20 diacid = O=C(O)CCCCCCCCCCCCCCCCCCC(=O)*; γGlu = O=C(O)[C@H](CCC(=O)[*:2])N[*:1]; Iva = CC[C@](C)(N)C(=O)O; PEG2 = NCCOCCOCCC(=O)O

Legend:
[1] = tested on: Mus musculus; assay: Antifibrotic activity against BLM-induced C57BL/6 mouse pulmonary fibrosis model assessed as downregulation of Mmp-9 gene expression in lung tissue at 150 ug/kg, sc administered for 2 weeks starting from 7 days post BLM induction and measured after 21 days post BLM induction by RT-qPCR assay; type: functional, organism-based; settings: dose 150.0 µg/kg
[2] = tested on: A549; assay: Antifibrotic activity against TNFalpha-induced human A549 cells assessed as downregulation of Tgfb1 gene expression level at 10 uM incubated for 24 hrs by RT-qPCR analysis; type: functional, cell-based
[3] = tested on: Mus musculus; assay: Antifibrotic activity against BLM-induced C57BL/6 mouse pulmonary fibrosis model assessed as reduction in proportion of fibroblasts at 240 ug/kg/day, sc administered for 2 weeks starting from 7 days post BLM induction and measured after 21 days post BLM induction; type: functional, organism-based; settings: dose 240.0 µg/kg/day
[4] = tested on: Mus musculus; assay: Antifibrotic activity against BLM-induced C57BL/6 mouse pulmonary fibrosis model assessed as reduction in Timp1 gene expression at 240 ug/kg/day, sc administered for 2 weeks starting from 7 days post BLM induction and measured after 21 days post BLM induction by ScRNA-sequencing analysis; type: functional, organism-based; settings: dose 240.0 µg/kg/day
[5] = tested on: Mus musculus; assay: Antifibrotic activity against BLM-induced C57BL/6 mouse pulmonary fibrosis model assessed as reduction in Vimentin expression at 240 ug/kg/day, sc administered for 2 weeks starting from 7 days post BLM induction and measured after 21 days post BLM induction in presence of GM6001; type: functional, organism-based; settings: dose 240.0 µg/kg/day
[6] = tested on: RAW264.7; assay: Induction of cell migration in mouse RAW264.7 cells at 10 uM by DAPI staining based assay; type: functional
[7] = tested on: Mus musculus; assay: Antifibrotic activity against BLM-induced C57BL/6 mouse pulmonary fibrosis model assessed as reduction in spp1 gene expression at 240 ug/kg/day, sc administered for 2 weeks starting from 7 days post BLM induction and measured after 21 days post BLM induction by ScRNA-sequencing analysis; type: functional, organism-based; settings: dose 240.0 µg/kg/day
[8] = tested on: Mus musculus; assay: Antifibrotic activity against BLM-induced C57BL/6 mouse pulmonary fibrosis model assessed as reduction in alpha-SMA expression at 240 ug/kg/day, sc administered for 2 weeks starting from 7 days post BLM induction and measured after 21 days post BLM induction in presence of GM6001; type: functional, organism-based; settings: dose 240.0 µg/kg/day
[9] = tested on: TC-1; assay: Antifibrotic activity against BLM-induced mouse TC-1 cells assessed as reduction in FN expression at 10 uM after 24 hrs by Western blotting analysis; type: functional, cell-based
[10] = tested on: Mus musculus; assay: Antifibrotic activity against BLM-induced C57BL/6 mouse pulmonary fibrosis model assessed as reduction in Tnc gene expression at 240 ug/kg/day, sc administered for 2 weeks starting from 7 days post BLM induction and measured after 21 days post BLM induction by ScRNA-sequencing analysis; type: functional, organism-based; settings: dose 240.0 µg/kg/day
[11] = Half-life in Sprague-Dawley rat serum at 0.04 mg/kg, sc administered as single dose measured upto 10 days by LC-MS/MS method; type: ADME, organism-based; settings: time < 10 day
[12] = tested on: Mus musculus; assay: Antifibrotic activity against BLM-induced C57BL/6 mouse pulmonary fibrosis model assessed as reduction in fibrotic accumulation in lungs at 150 ug/kg, sc administered for 2 weeks starting from 7 days post BLM induction and measured after 21 days post BLM induction by immunohistochemical staining based assay; type: functional, organism-based; settings: dose 150.0 µg/kg
[13] = tested on: TC-1; assay: Antifibrotic activity against BLM-induced mouse TC-1 cells assessed as reduction in MMP-12 expression at 10 uM after 24 hrs by Western blotting analysis; type: functional, cell-based
[14] = tested on: Mus musculus; assay: Antifibrotic activity against BLM-induced C57BL/6 mouse pulmonary fibrosis model assessed as reduction in Des gene expression at 240 ug/kg/day, sc administered for 2 weeks starting from 7 days post BLM induction and measured after 21 days post BLM induction by ScRNA-sequencing analysis; type: functional, organism-based; settings: dose 240.0 µg/kg/day
[15] = tested on: Mus musculus; assay: Antifibrotic activity against BLM-induced C57BL/6 mouse pulmonary fibrosis model assessed as reduction in Eln gene expression at 240 ug/kg/day, sc administered for 2 weeks starting from 7 days post BLM induction and measured after 21 days post BLM induction by ScRNA-sequencing analysis; type: functional, organism-based; settings: dose 240.0 µg/kg/day
[16] = Tmax in Sprague-Dawley rat serum at 0.12 mg/kg, sc administered as single dose measured upto 10 days by LC-MS/MS method; type: ADME, organism-based; settings: time < 10 day
[17] = tested on: Mus musculus; assay: Antifibrotic activity against BLM-induced C57BL/6 mouse pulmonary fibrosis model assessed as reduction in Tpm2 gene expression at 240 ug/kg/day, sc administered for 2 weeks starting from 7 days post BLM induction and measured after 21 days post BLM induction by ScRNA-sequencing analysis; type: functional, organism-based; settings: dose 240.0 µg/kg/day
[18] = tested on: Mus musculus; assay: Antifibrotic activity against BLM-induced C57BL/6 mouse pulmonary fibrosis model assessed as reduction in mortality at 150 ug/kg, sc administered for 2 weeks starting from 7 days post BLM induction and measured after 21 days post BLM induction; type: functional, organism-based; settings: dose 150.0 µg/kg
[19] = tested on: Mus musculus; assay: Antifibrotic activity against BLM-induced C57BL/6 mouse pulmonary fibrosis model assessed as downregulation of Fn gene expression in lung tissue at 150 ug/kg, sc administered for 2 weeks starting from 7 days post BLM induction and measured after 21 days post BLM induction by RT-qPCR assay; type: functional, organism-based; settings: dose 150.0 µg/kg
[20] = tested on: A549; assay: Inhibition of EBP signaling pathway in TGFalpha induced human A549 cells assessed as reduction in AKT phosphorylation at 10 uM incubated for 24 hrs by Western blotting analysis; type: cell-based
[21] = tested on: Mus musculus; assay: Antifibrotic activity against BLM-induced C57BL/6 mouse pulmonary fibrosis model assessed as reduction in Adamts2 gene expression at 240 ug/kg/day, sc administered for 2 weeks starting from 7 days post BLM induction and measured after 21 days post BLM induction by ScRNA-sequencing analysis; type: functional, organism-based; settings: dose 240.0 µg/kg/day
[22] = tested on: Mus musculus; assay: Antifibrotic activity against BLM-induced C57BL/6 mouse pulmonary fibrosis model assessed as reduction in TIMP-1 expression at 240 ug/kg/day, sc administered for 2 weeks starting from 7 days post BLM induction and measured after 21 days post BLM induction in presence of Clo-Lip; type: functional, organism-based; settings: dose 240.0 µg/kg/day
[23] = tested on: Mus musculus; assay: Antifibrotic activity against BLM-induced C57BL/6 mouse pulmonary fibrosis model assessed as reduction in TIMP-1 expression at 240 ug/kg/day, sc administered for 2 weeks starting from 7 days post BLM induction and measured after 21 days post BLM induction in presence of GM6001; type: functional, organism-based; settings: dose 240.0 µg/kg/day
[24] = tested on: Mus musculus; assay: Antifibrotic activity against BLM-induced C57BL/6 mouse pulmonary fibrosis model assessed as reduction in ECM1 gene expression at 240 ug/kg/day, sc administered for 2 weeks starting from 7 days post BLM induction and measured after 21 days post BLM induction by ScRNA-sequencing analysis; type: functional, organism-based; settings: dose 240.0 µg/kg/day
[25] = tested on: Mus musculus; assay: Antifibrotic activity against BLM-induced C57BL/6 mouse pulmonary fibrosis model assessed as reduction in Cthrc1 gene expression at 240 ug/kg/day, sc administered for 2 weeks starting from 7 days post BLM induction and measured after 21 days post BLM induction by ScRNA-sequencing analysis; type: functional, organism-based; settings: dose 240.0 µg/kg/day
[26] = organism: Homo sapiens; assay: Inhibition of neuraminidase (unknown origin) at 0.005 to 500 uM; settings: dose 0.005-500 µM
[27] = tested on: A549; assay: Antifibrotic activity against TNFalpha-induced human A549 cells assessed as downregulation of Fn gene expression level at 10 uM incubated for 24 hrs by RT-qPCR analysis; type: functional, cell-based
[28] = tested on: Mus musculus; assay: Antifibrotic activity against BLM-induced C57BL/6 mouse pulmonary fibrosis model assessed as reduction in Fn gene expression at 240 ug/kg/day, sc administered for 2 weeks starting from 7 days post BLM induction and measured after 21 days post BLM induction by ScRNA-sequencing analysis; type: functional, organism-based; settings: dose 240.0 µg/kg/day

In the case of `CC[C@](C)(NC(=O)[C@@H](NC(=O)CCOCCOCCNC(=O)CCOCCOCCNC(=O)CC[C@H](NC(=O)CCCCCCCCCCCCCCCCCCC(=O)O)C(=O)O)C(C)C)C(=O)NCC(=O)N[C@@H](CO)C(=O)N1CCC[C@H]1C(=O)N[C@@H](CO)C(=O)N[C@@H](C)C(=O)N[C@@H](CCC(N)=O)C(=O)N[C@@H](CCC(=O)O)C(=O)N[C@@H](CCC(=O)O)C(=O)N[C@@H](C)C(=O)N[C@@H](CO)C(=O)N1CCC[C@H]1C(=O)N[C@@H](C)C(N)=O` ({C20 diacid-γGlu-PEG2-PEG2}-V[Iva]GSPSAQEEASPA-NH2), the Activity [1] is reported as “Active”, the Activity [2] is reported as “Active” and the Activity [3] is reported as “Active”. The Activity [4] was “Active”, the Activity [5] was “inactive” and the Activity [6] was “Active”. The Activity [7] was “Active”, the Activity [8] was “inactive” and the Activity [9] was “Active”. For the same molecule, the Activity [10] was “Active”, the half-life [11] was 33.4 h and the Activity [12] was “Active”. The Activity [13] was “inactive”, the Activity [14] was “Active” and the Activity [15] was “Active”. For the same molecule, the Tmax [16] was 24 h, the Activity [17] was “Active” and the Activity [18] was “Active”. For the same molecule, the Activity [19] was “Active”, the inhibition [20] was “Active” and the Activity [21] was “Active”. The Activity [22] was “inactive”, the Activity [23] was “inactive” and the Activity [24] was “Active”. For the same molecule, the Activity [25] was “Active”, the inhibition [26] was “Active” and the Activity [27] was “Active”. The Activity [28] was “Active”.
